{"source": "patent US7815928B2", "about": "“Device for local administration of solid or semi-solid formulations and delayed-release formulations for proposal parenteral administration and preparation process” (Societe de Conseils de Recherches et d'Applications …, priority 1996, dated 2010)", "origin": "cited, not measured here", "test_system": "smooth muscle cells", "details": "after endothelial damage"}
{"substance": "heparin", "values": [{"measurement": "proliferation of smooth muscle cells", "value": "inhibits the proliferation"}]}
